Laboratory results as given in patent publication US4360511A, “Amines useful as brain imaging agents” (Medi-Physics, Inc., priority 1980, dated 1982).
Like-named read-outs stand apart in the source and are kept apart here.

Assay: Bioassay: distribution of I-123-labeled compounds in organs of rats after tail vein injection (percent dose/gram, brain/blood ratio)
Format: in vivo, Female Sprague-Dawley rats
Conditions: for Brain/Blood Ratio 5 min. / tissue uptake at 5 min: 5 minutes post-injection; for Brain/Blood Ratio 60 min. / tissue uptake at 1 h: 60 minutes post-injection; for tissue uptake at 5 min / tissue uptake at 1 h: rat, iv, 0.05 to 1.0 mCi, two rats
Procedure: Female Sprague-Dawley rats weighing approximately 150 g were anesthetized with sodium pentobarbital and were injected in a tail vein with from 0.05 to 1.0 mCi (in a volume of 0.2 to 0.5 ml) of the I-123-labeled compound. Two specimens were utilized for each test.
Two animals each were sacrificed at 5 minutes and 60 minutes post-injection, the tails discarded and the amount of activity in various organs determined. Each organ was counted at a standardized geometry with a sodium iodide crystal scintillation counter adjusted for the 159 keV emission of I-123. The organs were also weighed to one thousandth of a gram and the activity calculated as a percent of administered dose per gram of organ weight.
The ratio of brain-to-blood activity was calculated as a percent of administered dose per gram.

[1] = blood, read-out: Percent Dose/Gram Blood 5 min.
[2] = blood, read-out: Percent Dose/Gram Blood 60 min.
[3] = brain, read-out: Percent Dose/Gram Brain 5 min.
[4] = brain, read-out: Percent Dose/Gram Brain 60 min.
[5] = heart, read-out: Percent Dose/Gram Heart 5 min.
[6] = heart, read-out: Percent Dose/Gram Heart 60 min.

CC(C)Nc1ccc([123I])cc1 [I--123-N--isopropyl-p-iodoaniline]
Brain/Blood Ratio 5 min.: 2.55
Brain/Blood Ratio 60 min.: 0.33
tissue uptake at 5 min [1]: 0.48 %ID/g
tissue uptake at 1 h [2]: 0.79 %ID/g
tissue uptake at 5 min [3]: 1.23 %ID/g
tissue uptake at 1 h [4]: 0.26 %ID/g
tissue uptake at 5 min [5]: 1.01 %ID/g
tissue uptake at 1 h [6]: 0.61 %ID/g

N#CC(N)c1ccccc1[123I] (stereo not drawn) [I--123-α-amino-o-iodophenylacetonitrile]
Brain/Blood Ratio 5 min.: 1.74
tissue uptake at 5 min [1]: 0.34 %ID/g
tissue uptake at 5 min [3]: 0.58 %ID/g
tissue uptake at 5 min [5]: 0.86 %ID/g

CC(Cc1ccccc1)NCc1ccccc1[123I] (racemic) [I--123-N--o-iodobenzylamphetamine (dl)]
Brain/Blood Ratio 5 min.: 3.93
Brain/Blood Ratio 60 min.: 1.89
tissue uptake at 5 min [1]: 0.27 %ID/g
tissue uptake at 1 h [2]: 0.19 %ID/g
tissue uptake at 5 min [3]: 1.06 %ID/g
tissue uptake at 1 h [4]: 0.36 %ID/g
tissue uptake at 5 min [5]: 0.72 %ID/g
tissue uptake at 1 h [6]: 0.37 %ID/g

Nc1ccc([123I])cc1 [I--123-p-iodoaniline]
Brain/Blood Ratio 5 min.: 1.12
Brain/Blood Ratio 60 min.: 1.00
tissue uptake at 5 min [1]: 0.97 %ID/g
tissue uptake at 1 h [2]: 0.8 %ID/g
tissue uptake at 5 min [3]: 1.09 %ID/g
tissue uptake at 1 h [4]: 0.8 %ID/g
tissue uptake at 5 min [5]: 1.11 %ID/g
tissue uptake at 1 h [6]: 0.8 %ID/g

CC1CCC(C)N1Cc1ccccc1[123I] (centres unmarked) [I--123-N--o-iodobenzyl-2,5-dimethylpyrrolidine]
Brain/Blood Ratio 5 min.: 3.17
Brain/Blood Ratio 60 min.: 1.52
tissue uptake at 5 min [1]: 0.37 %ID/g
tissue uptake at 1 h [2]: 0.15 %ID/g
tissue uptake at 5 min [3]: 1.16 %ID/g
tissue uptake at 1 h [4]: 0.22 %ID/g
tissue uptake at 5 min [5]: 1.03 %ID/g
tissue uptake at 1 h [6]: 0.46 %ID/g

NCCc1ccccc1[123I] [I--123-o-iodo-β-phenethylamine]
Brain/Blood Ratio 5 min.: 0.49
tissue uptake at 5 min [1]: 1.43 %ID/g
tissue uptake at 5 min [3]: 0.7 %ID/g
tissue uptake at 5 min [5]: 1.22 %ID/g

[123I]c1ccccc1CCNCCc1ccccc1 [I--123-N--β-phenethyl-o-iodo-β-phenethylamine]
Brain/Blood Ratio 5 min.: 4.77
Brain/Blood Ratio 60 min.: 5.17
tissue uptake at 5 min [1]: 0.16 %ID/g
tissue uptake at 1 h [2]: 0.09 %ID/g
tissue uptake at 5 min [3]: 0.74 %ID/g
tissue uptake at 1 h [4]: 0.48 %ID/g
tissue uptake at 5 min [5]: 1.56 %ID/g
tissue uptake at 1 h [6]: 0.26 %ID/g

[123I]c1ccccc1NCCc1ccccc1 [I--123-N--β-phenethyl-o-iodoaniline]
Brain/Blood Ratio 5 min.: 1.24
Brain/Blood Ratio 60 min.: 0.33
tissue uptake at 5 min [1]: 1.04 %ID/g
tissue uptake at 1 h [2]: 0.48 %ID/g
tissue uptake at 5 min [3]: 1.29 %ID/g
tissue uptake at 1 h [4]: 0.16 %ID/g
tissue uptake at 5 min [5]: 1.16 %ID/g
tissue uptake at 1 h [6]: 0.33 %ID/g

[123I]c1ccccc1CNc1ccccc1 [I--123-N--o-iodobenzylaniline]
Brain/Blood Ratio 5 min.: 1.70
Brain/Blood Ratio 60 min.: 0.41
tissue uptake at 5 min [1]: 0.61 %ID/g
tissue uptake at 1 h [2]: 0.41 %ID/g
tissue uptake at 5 min [3]: 1.02 %ID/g
tissue uptake at 1 h [4]: 0.17 %ID/g
tissue uptake at 5 min [5]: 0.83 %ID/g
tissue uptake at 1 h [6]: 0.31 %ID/g

[123I]c1ccc(NCCc2ccccc2)cc1 [I--123-N--β-phenethyl-p-iodoaniline]
Brain/Blood Ratio 5 min.: 1.06
tissue uptake at 5 min [1]: 0.88 %ID/g
tissue uptake at 5 min [3]: 0.93 %ID/g
tissue uptake at 5 min [5]: 1.38 %ID/g

CNCCc1ccccc1[123I] [I--123-N--methyl-o-iodo-β-phenethylamine]
Brain/Blood Ratio 5 min.: 0.49
tissue uptake at 5 min [1]: 1.16 %ID/g
tissue uptake at 5 min [3]: 0.57 %ID/g
tissue uptake at 5 min [5]: 1.07 %ID/g

CC(C)NCc1cccc([123I])c1 [I--123-N--isopropyl-m-iodobenzylamine]
Brain/Blood Ratio 5 min.: 7.35
Brain/Blood Ratio 60 min.: 4.16
tissue uptake at 5 min [1]: 0.22 %ID/g
tissue uptake at 1 h [2]: 0.21 %ID/g
tissue uptake at 5 min [3]: 1.61 %ID/g
tissue uptake at 1 h [4]: 0.85 %ID/g
tissue uptake at 5 min [5]: 0.99 %ID/g
tissue uptake at 1 h [6]: 0.46 %ID/g

CC(C)N[C@@H](C)Cc1ccc([123I])cc1 [I--123-S--N--isopropyl-p-iodoamphetamine, I-123-S-N-isopropyl-p-iodoamphetamine]
Brain/Blood Ratio 5 min.: 12.80
Brain/Blood Ratio 60 min.: 15.40
tissue uptake at 5 min [1]: 0.11 %ID/g
tissue uptake at 1 h [2]: 0.13 %ID/g
tissue uptake at 5 min [3]: 1.32 %ID/g
tissue uptake at 1 h [4]: 1.93 %ID/g
tissue uptake at 5 min [5]: 1.28 %ID/g
tissue uptake at 1 h [6]: 0.85 %ID/g

CC(C)N(Cc1ccccc1[123I])C(C)C [I--123-N,N--diisopropyl-o-iodobenzylamine]
Brain/Blood Ratio 5 min.: 5.73
Brain/Blood Ratio 60 min.: 1.31
tissue uptake at 5 min [1]: 0.25 %ID/g
tissue uptake at 1 h [2]: 0.35 %ID/g
tissue uptake at 5 min [3]: 1.4 %ID/g
tissue uptake at 1 h [4]: 0.46 %ID/g
tissue uptake at 5 min [5]: 2.12 %ID/g
tissue uptake at 1 h [6]: 0.46 %ID/g

CC1CCCC(C)N1Cc1ccccc1[123I] (centres unmarked) [I--123-N--o-iodobenzyl-2,6-dimethylpiperidine]
Brain/Blood Ratio 5 min.: 3.32
Brain/Blood Ratio 60 min.: 1.59
tissue uptake at 5 min [1]: 0.31 %ID/g
tissue uptake at 1 h [2]: 0.21 %ID/g
tissue uptake at 5 min [3]: 1.01 %ID/g
tissue uptake at 1 h [4]: 0.32 %ID/g
tissue uptake at 5 min [5]: 1.14 %ID/g
tissue uptake at 1 h [6]: 0.44 %ID/g

CCCNCc1ccccc1[123I] [I--123-N--propyl-o-iodobenzylamine]
Brain/Blood Ratio 5 min.: 3.81
Brain/Blood Ratio 60 min.: 1.84
tissue uptake at 5 min [1]: 0.27 %ID/g
tissue uptake at 1 h [2]: 0.32 %ID/g
tissue uptake at 5 min [3]: 1.03 %ID/g
tissue uptake at 1 h [4]: 0.59 %ID/g
tissue uptake at 5 min [5]: 0.77 %ID/g
tissue uptake at 1 h [6]: 0.59 %ID/g

[123I]c1ccc(NCc2ccccc2)cc1 [I--123-N--benzyl-p-iodoaniline]
Brain/Blood Ratio 5 min.: 1.57
Brain/Blood Ratio 60 min.: 0.51
tissue uptake at 5 min [1]: 1 %ID/g
tissue uptake at 1 h [2]: 0.86 %ID/g
tissue uptake at 5 min [3]: 1.57 %ID/g
tissue uptake at 1 h [4]: 0.44 %ID/g
tissue uptake at 5 min [5]: 1.28 %ID/g
tissue uptake at 1 h [6]: 0.59 %ID/g

[123I]c1ccccc1CCN1CCCCC1 [I--123-N--o-iodo-β-phenethylpiperidine]
Brain/Blood Ratio 5 min.: 2.35
tissue uptake at 5 min [1]: 0.46 %ID/g
tissue uptake at 5 min [3]: 1.08 %ID/g
tissue uptake at 5 min [5]: 1.68 %ID/g

CC(C)N[C@H](C)Cc1ccc([123I])cc1 [I--123-R--N--isopropyl-p-iodoamphetamine, I-123-R-N-isopropyl-p-iodoamphetamine]
Brain/Blood Ratio 5 min.: 12.60
Brain/Blood Ratio 60 min.: 20.70
tissue uptake at 5 min [1]: 0.14 %ID/g
tissue uptake at 1 h [2]: 0.11 %ID/g
tissue uptake at 5 min [3]: 1.57 %ID/g
tissue uptake at 1 h [4]: 2.14 %ID/g
tissue uptake at 5 min [5]: 1.78 %ID/g
tissue uptake at 1 h [6]: 0.87 %ID/g

[123I]c1ccc(N(Cc2ccccc2)Cc2ccccc2)cc1 [I--123-N,N--dibenzyl-p-iodoaniline]
Brain/Blood Ratio 5 min.: 0.53
Brain/Blood Ratio 60 min.: 0.54
tissue uptake at 5 min [1]: 0.66 %ID/g
tissue uptake at 1 h [2]: 0.41 %ID/g
tissue uptake at 5 min [3]: 0.35 %ID/g
tissue uptake at 1 h [4]: 0.22 %ID/g
tissue uptake at 5 min [5]: 2.1 %ID/g
tissue uptake at 1 h [6]: 0.46 %ID/g

C[C@@H](N)Cc1ccc([123I])cc1 [I--123-R--p-iodoamphetamine, I-123-R-p-iodoamphetamine]
Brain/Blood Ratio 5 min.: 10.60
Brain/Blood Ratio 60 min.: 18.50
tissue uptake at 5 min [1]: 0.15 %ID/g
tissue uptake at 1 h [2]: 0.12 %ID/g
tissue uptake at 5 min [3]: 1.38 %ID/g
tissue uptake at 1 h [4]: 2.07 %ID/g
tissue uptake at 5 min [5]: 2.43 %ID/g
tissue uptake at 1 h [6]: 1.09 %ID/g

CC(Cc1ccccc1)NCCc1ccccc1[123I] (racemic) [I--123-N--o-iodo-β-phenethylamphetamine (dl)]
Brain/Blood Ratio 5 min.: 7.13
Brain/Blood Ratio 60 min.: 7.86
tissue uptake at 5 min [1]: 0.12 %ID/g
tissue uptake at 1 h [2]: 0.11 %ID/g
tissue uptake at 5 min [3]: 0.82 %ID/g
tissue uptake at 1 h [4]: 0.83 %ID/g
tissue uptake at 5 min [5]: 2.02 %ID/g
tissue uptake at 1 h [6]: 0.48 %ID/g

NC(=O)C(Nc1ccc([123I])cc1)c1ccccc1 (stereo not drawn) [I--123-α-(p-iodoanilino)phenylacetamide]
Brain/Blood Ratio 5 min.: 1.30
tissue uptake at 5 min [1]: 0.71 %ID/g
tissue uptake at 5 min [3]: 0.92 %ID/g
tissue uptake at 5 min [5]: 1.42 %ID/g

N#CC(Nc1ccccc1)c1ccccc1[123I] (stereo not drawn) [I--123-α-anilino-o-iodophenylacetonitrile]
Brain/Blood Ratio 5 min.: 4.68
Brain/Blood Ratio 60 min.: 1.41
tissue uptake at 5 min [1]: 0.17 %ID/g
tissue uptake at 1 h [2]: 0.1 %ID/g
tissue uptake at 5 min [3]: 0.8 %ID/g
tissue uptake at 1 h [4]: 0.14 %ID/g
tissue uptake at 5 min [5]: 0.9 %ID/g
tissue uptake at 1 h [6]: 0.24 %ID/g

[123I]c1ccccc1NCc1ccccc1 [I--123-N--benzyl-o-iodoaniline]
Brain/Blood Ratio 5 min.: 2.23
Brain/Blood Ratio 60 min.: 0.80
tissue uptake at 5 min [1]: 0.3 %ID/g
tissue uptake at 1 h [2]: 0.36 %ID/g
tissue uptake at 5 min [3]: 0.67 %ID/g
tissue uptake at 1 h [4]: 0.29 %ID/g
tissue uptake at 5 min [5]: 0.34 %ID/g
tissue uptake at 1 h [6]: 1.25 %ID/g

CC(C)N(CCc1ccccc1)CCc1ccccc1[123I] [I--123-N--β-phenethyl-N--isopropyl-o-iodo-β-phenethylamine]
Brain/Blood Ratio 5 min.: 1.83
tissue uptake at 5 min [1]: 0.29 %ID/g
tissue uptake at 5 min [3]: 0.53 %ID/g
tissue uptake at 5 min [5]: 2.01 %ID/g

CCN(Cc1ccccc1I)Cc1ccccc1[123I] [I--123-N,N--di-o-iodobenzylethylamine]
Brain/Blood Ratio 5 min.: 0.68
Brain/Blood Ratio 60 min.: 0.88
tissue uptake at 5 min [1]: 0.52 %ID/g
tissue uptake at 1 h [2]: 0.28 %ID/g
tissue uptake at 5 min [3]: 0.36 %ID/g
tissue uptake at 1 h [4]: 0.25 %ID/g
tissue uptake at 5 min [5]: 2.11 %ID/g
tissue uptake at 1 h [6]: 0.5 %ID/g
